Values after ≈ are worked out from the molar mass of the structure shown.
Legend:
Format in all cases: functional
Neisseria gonorrhoeae [1] = test: Antimicrobial activity against Neisseria gonorrhoeae isolate NG0002 expressing chromosomal cefixime-resistant penA gene by agar dilution method
Neisseria gonorrhoeae [2] = test: Antimicrobial activity against Neisseria gonorrhoeae isolate NG0402 expressing chromosomal cefixime-resistant penA gene by agar dilution method
Neisseria gonorrhoeae [3] = test: Antimicrobial activity against Neisseria gonorrhoeae isolate NG0511 expressing chromosomal cefixime-resistant penA gene by agar dilution method
Neisseria gonorrhoeae [4] = test: Antimicrobial activity against Neisseria gonorrhoeae isolate NG9806 expressing chromosomal cefixime-resistant penA gene by agar dilution method
Neisseria gonorrhoeae [5] = test: Antimicrobial activity against Neisseria gonorrhoeae isolate NG0401 expressing chromosomal cefixime-resistant penA gene by agar dilution method
Neisseria gonorrhoeae [6] = test: Antimicrobial activity against Neisseria gonorrhoeae isolate NG0513 expressing chromosomal cefixime-resistant penA gene by agar dilution method
Neisseria gonorrhoeae [7] = test: Antimicrobial activity against Neisseria gonorrhoeae isolate NG0514 expressing chromosomal cefixime-resistant penA gene by agar dilution method
Neisseria gonorrhoeae [8] = test: Antimicrobial activity against Neisseria gonorrhoeae isolate NG9913 expressing chromosomal cefixime-resistant penA gene by agar dilution method
Neisseria gonorrhoeae [9] = test: Antimicrobial activity against Neisseria gonorrhoeae isolate NG0003 expressing chromosomal cefixime-resistant penA gene at […] after 16 hrs
Neisseria gonorrhoeae [10] = test: Antimicrobial activity against Neisseria gonorrhoeae isolate NG0311 expressing chromosomal cefixime-resistant penA gene by agar dilution method
Neisseria gonorrhoeae [11] = test: Antimicrobial activity against Neisseria gonorrhoeae isolate NG0503 expressing chromosomal cefixime-resistant penA gene by agar dilution method
Neisseria gonorrhoeae [12] = test: Antimicrobial activity against Neisseria gonorrhoeae isolate NG0205 expressing chromosomal cefixime-resistant penA gene by agar dilution method
Neisseria gonorrhoeae [13] = test: Antimicrobial activity against Neisseria gonorrhoeae isolate NG0512 expressing chromosomal cefixime-resistant penA gene by agar dilution method
Neisseria gonorrhoeae [14] = test: Antimicrobial activity against Neisseria gonorrhoeae isolate NG0206 expressing chromosomal cefixime-resistant penA gene by agar dilution method
Neisseria gonorrhoeae [15] = test: Antimicrobial activity against Neisseria gonorrhoeae isolate NGON03-092 expressing chromosomal cefixime-resistant penA gene by agar dilution method
Neisseria gonorrhoeae [16] = test: Antimicrobial activity against Neisseria gonorrhoeae isolate NG0202 expressing chromosomal cefixime-resistant penA gene at 0.031 ug/ml after 16 hrs
Neisseria gonorrhoeae [17] = test: Antimicrobial activity against Neisseria gonorrhoeae isolate NG0508 expressing chromosomal cefixime-resistant penA gene by agar dilution method
Neisseria gonorrhoeae [18] = test: Antimicrobial activity against Neisseria gonorrhoeae isolate NG0202 expressing chromosomal cefixime-resistant penA gene by agar dilution method
Neisseria gonorrhoeae [19] = test: Antimicrobial activity against Neisseria gonorrhoeae isolate NG0509 expressing chromosomal cefixime-resistant penA gene by agar dilution method
Neisseria gonorrhoeae [20] = test: Antimicrobial activity against Neisseria gonorrhoeae isolate NG0109 expressing chromosomal cefixime-resistant penA gene by agar dilution method
Neisseria gonorrhoeae [21] = test: Antimicrobial activity against Neisseria gonorrhoeae isolate NG0410 expressing chromosomal cefixime-resistant penA gene by agar dilution method
Neisseria gonorrhoeae [22] = test: Antimicrobial activity against Neisseria gonorrhoeae isolate NG9812 expressing chromosomal cefixime-resistant penA gene by agar dilution method
Neisseria gonorrhoeae [23] = test: Antimicrobial activity against Neisseria gonorrhoeae isolate NG0003 expressing chromosomal cefixime-resistant penA gene by agar dilution method
Neisseria gonorrhoeae [24] = test: Antimicrobial activity against Neisseria gonorrhoeae isolate NG9912 expressing chromosomal cefixime-resistant penA gene by agar dilution method
Neisseria gonorrhoeae [25] = test: Antimicrobial activity against Neisseria gonorrhoeae isolate NG0304 expressing chromosomal cefixime-resistant penA gene by agar dilution method
Neisseria gonorrhoeae [26] = test: Antimicrobial activity against Neisseria gonorrhoeae isolate NG9911 expressing chromosomal cefixime-resistant penA gene by agar dilution method
Neisseria gonorrhoeae [27] = test: Antimicrobial activity against Neisseria gonorrhoeae isolate NG0204 expressing chromosomal cefixime-resistant penA gene by agar dilution method
Neisseria gonorrhoeae [28] = test: Antimicrobial activity against Neisseria gonorrhoeae isolate NG0201 expressing chromosomal cefixime-resistant penA gene by agar dilution method
Neisseria gonorrhoeae [29] = test: Antimicrobial activity against Neisseria gonorrhoeae isolate NG9811 expressing chromosomal cefixime-resistant penA gene by agar dilution method
Neisseria gonorrhoeae [30] = test: Antimicrobial activity against Neisseria gonorrhoeae isolate NG0008 expressing chromosomal cefixime-resistant penA gene by agar dilution method
Neisseria gonorrhoeae [31] = test: Antimicrobial activity against Neisseria gonorrhoeae isolate NG0303 expressing chromosomal cefixime-resistant penA gene by agar dilution method
Neisseria gonorrhoeae [32] = test: Antimicrobial activity against Neisseria gonorrhoeae isolate NG0207 expressing chromosomal cefixime-resistant penA gene by agar dilution method
Neisseria gonorrhoeae [33] = test: Antimicrobial activity against Neisseria gonorrhoeae isolate NG0111 expressing chromosomal cefixime-resistant penA gene by agar dilution method
Neisseria gonorrhoeae [34] = test: Antimicrobial activity against Neisseria gonorrhoeae isolate NGON07-002 expressing chromosomal cefixime-resistant penA gene by agar dilution method
Neisseria gonorrhoeae [35] = test: Antimicrobial activity against Neisseria gonorrhoeae isolate NG0110 expressing chromosomal cefixime-resistant penA gene by agar dilution method
Neisseria gonorrhoeae [36] = test: Antimicrobial activity against Neisseria gonorrhoeae isolate NG0312 expressing chromosomal cefixime-resistant penA gene by agar dilution method
Neisseria gonorrhoeae [37] = test: Antimicrobial activity against Neisseria gonorrhoeae isolate NG9914 expressing chromosomal cefixime-resistant penA gene by agar dilution method
Neisseria gonorrhoeae [38] = test: Antimicrobial activity against Neisseria gonorrhoeae isolate NG0404 expressing chromosomal cefixime-resistant penA gene by agar dilution method
Neisseria gonorrhoeae [39] = test: Antimicrobial activity against Neisseria gonorrhoeae isolate NGON03-115 expressing chromosomal cefixime-resistant penA gene by agar dilution method
Neisseria gonorrhoeae [40] = test: Antimicrobial activity against Neisseria gonorrhoeae isolate NGON03-079 expressing chromosomal cefixime-resistant penA gene by agar dilution method
Neisseria gonorrhoeae [41] = test: Antimicrobial activity against Neisseria gonorrhoeae isolate NG0202 expressing chromosomal cefixime-resistant penA gene at 2 ug/ml after 16 hrs
Neisseria gonorrhoeae [42] = test: Antimicrobial activity against Neisseria gonorrhoeae isolate NG0003 expressing chromosomal cefixime-resistant penA gene at 2 ug/ml after 16 hrs

Q: For `C=CC1=C(C(=O)O)N2C(=O)[C@@H](NC(=O)/C(=N\OCC(=O)O)c3csc(N)n3)[C@H]2SC1` [CEFIXIME], which MIC (Neisseria gonorrhoeae [1]) is on record?
A: 0.25 µg/mL (≈ 0.551 µM)

Q: What about the MIC (Neisseria gonorrhoeae [2]) of the same compound?
A: 0.031 µg/mL (≈ 0.0684 µM)

Q: What about the MIC (Neisseria gonorrhoeae [3]) of the same compound?
A: 0.25 µg/mL (≈ 0.551 µM)

Q: And the MIC (Neisseria gonorrhoeae [4])?
A: 0.25 µg/mL (≈ 0.551 µM)

Q: And the MIC (Neisseria gonorrhoeae [5])?
A: 0.5 µg/mL (≈ 1.1 µM)

Q: And the MIC (Neisseria gonorrhoeae [6])?
A: 0.5 µg/mL (≈ 1.1 µM)

Q: What about the MIC (Neisseria gonorrhoeae [7]) of the same compound?
A: 0.25 µg/mL (≈ 0.551 µM)

Q: And the MIC (Neisseria gonorrhoeae [8])?
A: 0.25 µg/mL (≈ 0.551 µM)

Q: And the CFU (Neisseria gonorrhoeae [9])?
A: 1.01 ×10⁸ /ml

Q: And the MIC (Neisseria gonorrhoeae [10])?
A: 0.5 µg/mL (≈ 1.1 µM)

Q: And the MIC (Neisseria gonorrhoeae [11])?
A: 0.25 µg/mL (≈ 0.551 µM)

Q: What about the MIC (Neisseria gonorrhoeae [12]) of the same compound?
A: 0.25 µg/mL (≈ 0.551 µM)

Q: What about the MIC (Neisseria gonorrhoeae [13]) of the same compound?
A: 0.25 µg/mL (≈ 0.551 µM)

Q: What about the MIC (Neisseria gonorrhoeae [14]) of the same compound?
A: 0.25 µg/mL (≈ 0.551 µM)

Q: And the MIC (Neisseria gonorrhoeae [15])?
A: 0.25 µg/mL (≈ 0.551 µM)

Q: What about the CFU (Neisseria gonorrhoeae [16]) of the same compound?
A: <10 mL⁻¹

Q: And the MIC (Neisseria gonorrhoeae [17])?
A: 0.25 µg/mL (≈ 0.551 µM)

Q: What about the MIC (Neisseria gonorrhoeae [18]) of the same compound?
A: 0.004 µg/mL (≈ 0.00882 µM)

Q: And the MIC (Neisseria gonorrhoeae [19])?
A: 0.25 µg/mL (≈ 0.551 µM)

Q: What about the MIC (Neisseria gonorrhoeae [20]) of the same compound?
A: 0.25 µg/mL (≈ 0.551 µM)

Q: And the MIC (Neisseria gonorrhoeae [21])?
A: 0.5 µg/mL (≈ 1.1 µM)

Q: What about the MIC (Neisseria gonorrhoeae [22]) of the same compound?
A: 0.25 µg/mL (≈ 0.551 µM)

Q: And the MIC (Neisseria gonorrhoeae [23])?
A: 0.25 µg/mL (≈ 0.551 µM)

Q: And the MIC (Neisseria gonorrhoeae [24])?
A: 0.25 µg/mL (≈ 0.551 µM)

Q: What about the MIC (Neisseria gonorrhoeae [25]) of the same compound?
A: 1 µg/mL (≈ 2.21 µM)

Q: And the MIC (Neisseria gonorrhoeae [26])?
A: 0.25 µg/mL (≈ 0.551 µM)

Q: And the MIC (Neisseria gonorrhoeae [27])?
A: 0.25 µg/mL (≈ 0.551 µM)

Q: What about the MIC (Neisseria gonorrhoeae [28]) of the same compound?
A: 0.25 µg/mL (≈ 0.551 µM)

Q: And the MIC (Neisseria gonorrhoeae [29])?
A: 0.25 µg/mL (≈ 0.551 µM)

Q: And the MIC (Neisseria gonorrhoeae [30])?
A: 0.25 µg/mL (≈ 0.551 µM)

Q: And the MIC (Neisseria gonorrhoeae [31])?
A: 0.25 µg/mL (≈ 0.551 µM)

Q: What about the MIC (Neisseria gonorrhoeae [32]) of the same compound?
A: 0.25 µg/mL (≈ 0.551 µM)

Q: What about the MIC (Neisseria gonorrhoeae [33]) of the same compound?
A: 0.25 µg/mL (≈ 0.551 µM)

Q: And the MIC (Neisseria gonorrhoeae [34])?
A: 0.25 µg/mL (≈ 0.551 µM)

Q: What about the MIC (Neisseria gonorrhoeae [35]) of the same compound?
A: 0.25 µg/mL (≈ 0.551 µM)

Q: And the MIC (Neisseria gonorrhoeae [36])?
A: 0.5 µg/mL (≈ 1.1 µM)

Q: What about the MIC (Neisseria gonorrhoeae [37]) of the same compound?
A: 0.25 µg/mL (≈ 0.551 µM)

Q: And the MIC (Neisseria gonorrhoeae [38])?
A: 0.5 µg/mL (≈ 1.1 µM)

Q: And the MIC (Neisseria gonorrhoeae [39])?
A: 0.5 µg/mL (≈ 1.1 µM)

Q: And the MIC (Neisseria gonorrhoeae [40])?
A: 0.5 µg/mL (≈ 1.1 µM)

Q: Which CFU (Neisseria gonorrhoeae [41]) does the source give for `O=C(O)c1cn(C2CC2)c2cc(N3CCNCC3)c(F)cc2c1=O` [CIPROFLOXACIN] here?
A: 0.71 ×10⁸ /ml

Q: And the CFU (Neisseria gonorrhoeae [42])?
A: <10 mL⁻¹

Q: And the MIC (Neisseria gonorrhoeae [18])?
A: 8 µg/mL (≈ 24.1 µM)

Q: What about the MIC (Neisseria gonorrhoeae [23]) of the same compound?
A: 0.031 µg/mL (≈ 0.0936 µM)
